# Measured values published in US20210107942A1, “TISSUE PROTECTIVE PEPTIDES AND PEPTIDE ANALOGS FOR PREVENTING AND TREATING DISEASES AND DISORDERS ASSOCIATED WITH TISSUE DAMAGE” (Araim Pharmaceuticals, Inc., priority 2013, published 2021).
# Assays:
# sciatic nerve injury = assay: Sciatic nerve injury assay (static sciatic index from toe spread); format: in vivo, Sprague-Dawley rats; conditions: rat, 50 mcg/kg into the caudal vein after nerve stretch injury, toe splaying over next four days, vs PBS; FIG. 1
# Procedure: RYLLEAKEAENITTG (SECS ID NO:1) was tested for tissue protective activity using a sciatic nerve injury assay, Sprague-Dawley rats (250-300 grams) (six per group, including control) were anesthetized using isoflurane. The rat was then placed on a homeothermic blanket to ensure that the core temperature of the rat was maintained at 35-37° C. during the operation. Core temperature was monitored via a rectal probe. The right sciatic nerve of the anesthetized rat was exposed at mid thigh through a quadriceps muscle dissection; a 2 cm incision with a 15 blade scalpel was made through the skin parallel and over the quadriceps muscle and the quadriceps muscle was cut to expose the sciatic nerve using a pair of dissecting scissors. […]
# Over the next four days the rear toe splaying of the rats was determined by placing the rat in an acrylic tube with a diameter of 30 cm on the scanning surface of a digital scanner. […] From the scans, the Toe Spread (the distance between the ball of the first toe and the ball of the fifth toe) and the Intermediate Toe Spread (the distance between the ball of the second toe and the ball of the fourth toe were measured. The static sciatic index (SSI) was then computed in accordance with S. Erbayraktar et al., 2003, Proc. Natl. Acad Sci USA 100, 6741-6746 (hereby incorporated by reference in its entirety) and statistical analysis performed.
# [1] = tested on: cancer cachexia, Yoshida hepatoma AH-130 cells; assay: Cachexia model (Yoshida hepatoma AH-130 inoculated rats); format: in vivo, Male Wistar Han rats; conditions: rat, daily 0.17 or 1.7 μg/kg/d, vs saline placebo
# Procedure: Male Wistar Han rats aged 8 weeks with an approximate weight of 200 g were inoculated intraperitoneally with 10^8 Yoshida hepatoma. AH-130 cells. Body weight and body composition were assessed before tumor inoculation and on the day of sacrifice. Quality of life indicators (spontaneous activity, food and water intake) were measured on day 0 and on day 10/11. Tumor cells were counted at the last day of the study. Rats were treated daily with either (1) low dose (0.17 μg/kg/d) RYLLEAKEAENITTG (SEQ ID NO:1), (2) high dose (1.7 μg/kg/d) RYLLEAKEAENITTG (SEQ ID NO:1), or (3) or normal saline (placebo) (n=22). Body composition of animals was analyzed using an EchoMRI-700 (Echo Medical Systems, Houston, Tex., USA). The analysis of the body structures was based on Nuclear Magnetic Resonance. Spontaneous activity was measured by an infrared scanner over 24 hours using Supermex activity monitoring system (Muromachi Kikai Co., LTD., Tokyo, Japan).
# [2] = tested on: histamine induced wheal (edema by intradermal histamine injection); assay: Histamine induced wheal formation; format: in vivo, Sprague-Dawley rats; conditions: rat, 30 mcg/kg intravenously shortly after intradermal histamine, area at fifteen minutes, vs placebo; FIG. 2
# Procedure: Under isofiurane anesthesia, 12 Sprague-Dawley rats' abdomens were shaved and depilated. Each rat was then injected intravenously (via internal jugular) with a dilute solution or Evans Blue (30 mg/ml in saline, 1 mg/kg bw). After 5 minutes, 6 small doses of histamine (histamine diphosphate, 20 microliters administered intradermally) in a rectangular pattern on each rat's abdomen. After fifteen minutes, when the wheal reaches its maximum size the wheal is photographed and the blister area was determined by digital planimetry. To test the efficacy of a peptide, RYLLEAKEAENITTG (SEQ ID NO:1) or placebo, was administered to the rats intravenously shortly after the histamine injection, at a dose of 30 mcg/kg.
sequence,measurement,setting,value
"RYLLEAKEAENITTG (peptide that have tissue protective activity) [tissue protective peptide of 15 amino acids derived from erythropoietin, made by Fmoc solid phase synthesis]","sciatic nerve injury (static sciatic index, SSI)",sciatic nerve injury,reduces sciatic nerve injury
same,loss of lean mass,"[1]; EchoMRI, FIG. 3C",reduced loss of lean mass
same,physical activity (spontaneous activity),"[1]; infrared scanner over 24 hours, FIG. 3D",increased physical activity
same,weight loss,[1]; FIG. 3A,reduced weight loss
same,epididymal fat,[1]; FIG. 3B,preserved epididymal fat
same,wheal area,[2],significantly reduced
